# In patent publication US5733904A, “Method for prevention and treatment of viral infectious diseases for viral suppression” (priority 1996, dated 1998):
# How the values were obtained:
# [1] = Acute toxicity in mice; design: species or system mouse (Slc: ddy, 5 weeks); details: mouse, in vivo, iv, i. v., male
# Protocol: Acute toxicity of the compounds of the present invention were conducted on rats and mice, and low toxicity was confirmed.
# [2] = tested on: C kinase; details: Cranial Nerve, 45 (9), 819-824, 1993; cited from earlier work
# [3] = tested on: myosin light chain kinase; details: Cranial Nerve, 45 (9), 819-824, 1993; cited from earlier work
# [4] = tested on: Herpes simplex virus type I; assay: Inhibitory action for plaque formation of Herpes simplex virus type I; type: cell-based; details: mean of two, control 51
# Protocol: (§1) Experiments were performed according to a method described in Antiviral Chemistry and Chemotherapy, 5 (6), 366-371, 1994 and Experimental Virology, Ed. by NIH Japan alumni assoc., Maruzen Publ. 1982, p. 65-78 or p. 331-340.
# (§2) Vero cells cultured in the medium (Dulbecco's modified MEM added with 10% FBS) were detached by trypsin (Sigma Corp.). The detached cells were suspended by 2×10^5 cells/ml in the same medium, and placed in the wells of a 48 hole plate. The plate was incubated at 37° C. under 5% CO2 for about one day to complete a full-sheet of the cells in all wells. After incubation, cultured supernatant was removed. A solution (50 μl) containing the compound diluted with 4-fold stepwise dilution by virus culture medium (MM: Dulbecco's modified MEM added with 2% FBS), was added thereto.
# (§3) A viral solution, 50 μl, in which the number of virus (parainfluenza virus or Herpes simplex virus type I) was adjusted to about 50 pfu (plaque forming unit)/50 μl by MM, was added to each well. MM 400 μl containing 1% methylcellulose was added in each well to provide a compound-added test group. A control group was prepared by adding the viral culture medium without adding the test compound.
# (§4) The groups were incubated at 37° C. under 5% CO2 for three days to form plaques and the number of plaques in each well was counted.
# (§5) The test compounds were FAS, and the compound of formula [I] where R^1 is hydroxy. The final concentration of the compound in the solution was set to 100, 25, 6.3 and 1.6 μg/ml, respectively. Each test group included 2 wells and a mean of the plaque numbers was obtained.
# [5] = tested on: Env (gp120) protein, HIV-1 infected MOLT-4 cells; assay: Suppressive action on expression of Env (gp120) protein on the surface of cells; type: cell-based; details: FIG. 3; Env positive cells after 5 days
# Protocol: (Suppressive action on expression of Env (gp120) protein on the surface of cells.)
# Cells obtained by culturing MOLT-4 (culture condition: 37° C., 5% CO2 /95% air, RPMI medium (GIBCO Corp.) containing 10% FBS) were adjusted to a preferable number of cells (1×10^5 cells/50 μl ). The cell suspension, 50 μl, (infected with MOLT-4 and HIV-1: M.O.I.=1.0) was put in a 96 hole microplate and cultured for 1 hour to infect the cells.
# A solution of the compound shown below, 100 μl, was added in each well and cultured for 5 days. The cultured solution was transferred into a plastic tube (Eppendorf Corp.) and centrifuged to collect the cells. The cells were treated with mouse anti-Env gp120 monoclonal antibody (Replingen Inc.) as a primary antibody and FITC (Fluorescein Isothiocyanate) labelled goat anti-mouse IgG (Cappel Corp.) as a secondary antibody to fluoresce. The number of fluorescent cells was fluoroscopically calculated by counting fluorescent cells according to an indirect fluorescent antibody technique (Techniques in HIV Research, Ed. A. Aldoriny and B. D. Walker, Stokton Press, New York, 1990).
# Env positive cells (%) was calculated by the following equation:
# Env positive cells (%)=(FITC) positive cells/total cells)×100
# Compounds: FAS, H-7 and KN-62.
# Control: solution without compound was used.
# [6] = tested on: parainfluenza virus; assay: Inhibitory action for plaque formation of parainfluenza virus; type: cell-based; details: mean of two, control 51.5
# Protocol: as §1, §2, §3, §4, §5
# [7] = tested on: HIV-1; assay: Comparison of suppressive activity of HIV proliferation with FAS and other anti-HIV drugs (syncytium formation); type: cell-based
# Protocol: Comparison of suppressive activity of HIV proliferation with FAS and other anti-HIV drugs.
# Experiments were conducted by the same method as in Example 3.
# The medicaments used in this experiment were compounds of the present invention (FAS, and a compound of formula [I] where R^1 is hydroxy as in the above-mentioned Japanese Patent Unexamined Publication No. 61-152658), ddI (Sigma Corp.) and AZT (Sigma Corp.) which are used as medicaments for the treatment of AIDS, and dextran sulfate (Sigma Corp.).
# [8] = tested on: rabbit plasma; assay: Blood coagulation time (APTT, PT); design: species or system rabbit (male, Japanese white); details: for PT / APTT: N=4, mean ± S.E.; for PT: control 7.3 ± 0.4; for APTT: control 16.9 ± 0.8
# Protocol: a) Blood coagulation time:
# Rabbits (male, Japanese white, body weight 2-3 kg, Oriental Yeast Co.) were used. […] After adding the test compound to the resultant plasma, activated partial thromboplastin time (APTT) and prothrombin time (PT) were measured by using a coagulometer (Coagtec, Coagtec TE600, EMRA; KC-10A, Baxter).
structure (smiles),measurement,setting,value
"Cl.O=S(=O)(c1cccc2cnccc12)N1CCCNCC1 [FAS, hexahydro-1-(5-isoquinoline-sulfonyl)-1H-1,4-diazepine hydrochloride]",LD50,[1],63.7 mg/kg
same,C kinase inhibition,[2],C kinase inhibition
same,myosin light chain kinase inhibition,[3],myosin light chain kinase inhibition
same,Plaque No.,[4]; 1.6 μg/ml,51
same,Plaque No.,[4]; 6.3 μg/ml,46
same,Plaque No.,[4]; 25 μg/ml,49
same,Plaque No.,[4]; 100 μg/ml,0
same,inhibitory activity for Env expression,[5],strong inhibitory activity for Env expression
same,Plaque No.,[6]; 6.3 μg/ml,50.5
same,Plaque No.,[6]; 25 μg/ml,36
same,Plaque No.,[6]; 100 μg/ml,3.5
same,inhibitory activity of syncytium formation of HIV-1,[7],"higher sensitivity than dextran sulfate, ddI and AZT"
same,IC50,"[7]; Human immunodeficiency virus 1, FIG. 5, approximate, read-out: 50% inhibitory concentration, syncytium formation",~800 nM
same,"effect on blood coagulation time (APTT, PT)",[8],no effect on blood coagulation time
same,PT,[8]; 10 μM,7.1 ± 0.6 s
same,APTT,[8]; 10 μM,16.4 ± 0.8 s
same,PT,[8]; 30 μM,7.1 ± 0.5 s
same,APTT,[8]; 30 μM,16.0 ± 0.8 s
same,PT,[8]; 100 μM,7.6 ± 0.9 s
same,APTT,[8]; 100 μM,16.3 ± 0.8 s
